Laboratory results: US20230203043A1, “NOVEL IMIDAZOPYRAZINE DERIVATIVES” (Hoffmann-La Roche Inc., priority 2020, published 2023)
Counter-ions that a name gives are not always drawn.

These molecules were tested on Acinetobacter baumannii ATCC17961 (assay: Antimicrobial susceptibility testing: 90% growth inhibitory concentration (IC90) determination in Iso-Sensitest broth, OD600 growth). Details: Acinetobacter baumannii, ATCC17961, 16 h, read-out: A. baumannii ATCC 17961 IC90 (uM), strain ATCC 17961, OD600 growth over 16 h.
Assay type: cell-based
In short: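 Growth monitored at 600 nm every 20 min for 16 h at 35±2 °C, inoculum ~5×10^(5) CFU/ml in Iso-Sensitest medium. Compounds in 10-point twofold series, e.g. 50 to 0.097 μM final; 90% inhibitory concentration taken from log-phase growth.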

Compound | IC90 [µM]
CC#CCn1cc(-c2cnc3c(Nc4ccc(C(=O)NCC(=O)NCCN)c(Cl)c4)nccn23)c(C(F)(F)F)n1 [Example 89, N-[2-(2-aminoethylamino)-2-oxoethyl]-4-[[3-[1-but-2-ynyl-3-(trifluoromethyl)pyrazol-4-yl]imidazo[1,2-a]pyrazin-8-yl]amino]-2-chlorobenzamide formate] | 0.573
C[C@@H](NC(=O)c1ccc(Nc2nccn3c(-c4c[nH]nc4C(F)(F)F)cnc23)cc1Cl)C(=O)N1CCC(N)CC1 [Example 90, N-[(2R)-1-(4-aminopiperidin-1-yl)-1-oxopropan-2-yl]-2-chloro-4-[[3-[3-(trifluoromethyl)-1H-pyrazol-4-yl]imidazo[1,2-a]pyrazin-8-yl]amino]benzamide formate] | 0.643
C[C@@H](NC(=O)c1ccc(Nc2nccn3c(-c4c[nH]nc4C(F)(F)F)cnc23)cc1Cl)C(=O)N1CCNCC1 [Example 91, 2-chloro-N-[(2R)-1-oxo-1-piperazin-1-ylpropan-2-yl]-4-[[3-[3-(trifluoromethyl)-1H-pyrazol-4-yl]imidazo[1,2-a]pyrazin-8-yl]amino]benzamide formate] | 0.645
C[C@@H](NC(=O)c1ccc(Nc2nccn3c(-c4c[nH]nc4C(F)(F)F)cnc23)cc1Cl)C(=O)NC1CC(N)C1 (stereo partly drawn) [Example 92, N-[(2R)-1-[(3-aminocyclobutyl)amino]-1-oxopropan-2-yl]-2-chloro-4-[[3-[3-(trifluoromethyl)-1H-pyrazol-4-yl]imidazo[1,2-a]pyrazin-8-yl]amino]benzamide formate] | 0.947
C[C@@H](NC(=O)c1ccc(Nc2nccn3c(-c4c[nH]nc4C(F)(F)F)cnc23)cc1Cl)C(=O)N[C@@H]1CCNC1 [Example 93, 2-chloro-N-[(2R)-1-oxo-1-[[(3R)-pyrrolidin-3-yl]amino]propan-2-yl]-4-[[3-[3-(trifluoromethyl)-1H-pyrazol-4-yl]imidazo[1,2-a]pyrazin-8-yl]amino]benzamide formate] | 1.02
C[C@@H](NC(=O)c1ccc(Nc2nccn3c(-c4c[nH]nc4C(F)(F)F)cnc23)cc1Cl)C(=O)N1CC[C@H](N)C1 [Example 94, N-[(2R)-1-[(3S)-3-aminopyrrolidin-1-yl]-1-oxopropan-2-yl]-2-chloro-4-[[3-[3-(trifluoromethyl)-1H-pyrazol-4-yl]imidazo[1,2-a]pyrazin-8-yl]amino]benzamide formate] | 1.24
C[C@@H](NC(=O)c1ccc(Nc2nccn3c(-c4c[nH]nc4C(F)(F)F)cnc23)cc1Cl)C(=O)NCCN [Example 95, N-[(2R)-1-(2-aminoethylamino)-1-oxopropan-2-yl]-2-chloro-4-[[3-[3-(trifluoromethyl)-1H-pyrazol-4-yl]imidazo[1,2-a]pyrazin-8-yl]amino]benzamide formate] | 1.53
C[C@@H](NC(=O)c1ccc(Nc2nccn3c(-c4c[nH]nc4C(F)(F)F)cnc23)cc1Cl)C(=O)N[C@H]1CCNC1 [Example 96, 2-chloro-N-[(2R)-1-oxo-1-[[(3S)-pyrrolidin-3-yl]amino]propan-2-yl]-4-[[3-[3-(trifluoromethyl)-1H-pyrazol-4-yl]imidazo[1,2-a]pyrazin-8-yl]amino]benzamide formate] | 1.63
C[C@@H](NC(=O)c1ccc(Nc2nccn3c(-c4c[nH]nc4C(F)(F)F)cnc23)cc1Cl)C(=O)N1CC[C@@H](N)C1 [Example 97, N-[(2R)-1-[(3R)-3-aminopyrrolidin-1-yl]-1-oxopropan-2-yl]-2-chloro-4-[[3-[3-(trifluoromethyl)-1H-pyrazol-4-yl]imidazo[1,2-a]pyrazin-8-yl]amino]benzamide formate] | 1.7
C[C@@H](NC(=O)c1ccc(Nc2nccn3c(-c4c[nH]nc4C(F)(F)F)cnc23)cc1Cl)C(=O)NCCN(C)C [Example 98, 2-chloro-N-[(2R)-1-[2-(dimethylamino)ethylamino]-1-oxopropan-2-yl]-4-[[3-[3-(trifluoromethyl)-1H-pyrazol-4-yl]imidazo[1,2-a]pyrazin-8-yl]amino]benzamide formate] | 1.94
C[C@@H](NC(=O)c1ccc(Nc2nccn3c(-c4c[nH]nc4C(F)(F)F)cnc23)cc1Cl)C(=O)N1CC(N)C1 [Example 99, N-[(2R)-1-(3-aminoazetidin-1-yl)-1-oxopropan-2-yl]-2-chloro-4-[[3-[3-(trifluoromethyl)-1H-pyrazol-4-yl]imidazo[1,2-a]pyrazin-8-yl]amino]benzamide formate] | 2.08

Same assay, conditions: Acinetobacter baumannii, ATCC17961, 16 h, strain ATCC 17961, OD600 growth over 16 h, read-out: A. baumannii ATCC 17961 IC90

IC90 [µM] | Compound
0.1 | N#CCn1cc(-c2cnc3c(Nc4ccc(C(=O)N5CC(N)C5)c(Cl)c4)nccn23)c(C(F)(F)F)n1 [Example 100, 2-[4-[8-[4-(3-aminoazetidine-1-carbonyl)-3-chloroanilino]imidazo[1,2-a]pyrazin-3-yl]-3-(trifluoromethyl)pyrazol-1-yl]acetonitrile]
0.18 | N#CCn1cc(-c2cnc3c(Nc4ccc(C(=O)N5CC6(CNC6)C5)c(Cl)c4)nccn23)c(C(F)(F)F)n1 [Example 102, 2-[4-[8-[3-chloro-4-(2,6-diazaspiro[3.3]heptane-2-carbonyl)anilino]imidazo[1,2-a]pyrazin-3-yl]-3-(trifluoromethyl)pyrazol-1-yl]acetonitrile]
0.195 | NC1CCN(C(=O)c2ccc(Nc3nccn4c(-c5cn(CC(F)F)nc5C(F)(F)F)cnc34)cc2Cl)CC1 [Example 103, (4-aminopiperidin-1-yl)-[2-chloro-4-[[3-[1-(2,2-difluoroethyl)-3-(trifluoromethyl)pyrazol-4-yl]imidazo[1,2-a]pyrazin-8-yl]amino]phenyl] methanone]
0.227 | O=C(c1ccc(Nc2nccn3c(-c4cn(C(F)F)nc4C(F)(F)F)cnc23)cc1Cl)N1CCN(C(=O)[C@@H]2CCCN2)CC1 [Example 104, [2-chloro-4-[[3-[1-(difluoromethyl)-3-(trifluoromethyl)pyrazol-4-yl]imidazo[1,2-a]pyrazin-8-yl]amino]phenyl]-[4-[(2S)-pyrrolidine-2-carbonyl]piperazin-1-yl]methanone]
1.56 | NC12CC(NC(=O)c3ccc(Nc4nccn5c(-c6c[nH]nc6C(F)(F)F)cnc45)cc3Cl)(C1)C2 [Example 105, N-(3-amino-1-bicyclo[1.1.1]pentanyl)-2-chloro-4-[[3-[3-(trifluoromethyl)-1H-pyrazol-4-yl]imidazo[1,2-a]pyrazin-8-yl]amino]benzamide]
0.222 | C#CCn1cc(-c2cnc3c(Nc4ccc(C(=O)N[C@H](C)CN)c(CC)c4)nccn23)c(C(F)(F)F)n1 [Example 106, N-[(2R)-1-aminopropan-2-yl]-2-ethyl-4-[[3-[1-prop-2-ynyl-3-(trifluoromethyl)pyrazol-4-yl]imidazo[1,2-a]pyrazin-8-yl]amino]benzamide]
0.239 | CCc1cc(Nc2nccn3c(-c4cn(CC(F)F)nc4C(F)(F)F)cnc23)ccc1C(=O)N[C@H](C)CN [Example 107, N-[(2R)-1-aminopropan-2-yl]-4-[[3-[1-(2,2-difluoroethyl)-3-(trifluoromethyl)pyrazol-4-yl]imidazo[1,2-a]pyrazin-8-yl]amino]-2-ethylbenzamide]
0.302 | C=CCn1cc(-c2cnc3c(Nc4ccc(C(=O)N[C@H](C)CN)c(CC)c4)nccn23)c(C(F)(F)F)n1 [Example 108, N-[(2R)-1-aminopropan-2-yl]-2-ethyl-4-[[3-[1-prop-2-enyl-3-(trifluoromethyl)pyrazol-4-yl]imidazo[1,2-a]pyrazin-8-yl]amino]benzamide]
